Reference: patent US20050170330A1, “Angiogensis models using nestin-expressing stem cells to image nascent blood vessels” (AntiCancer, Inc., priority 2003, published 2005)

What was measured:
[1] = system: B16F10 murine melanoma cells; assay: Cord formation in vitro by B16F10 tumor cells; assay type: cell-based
Source text: B16F10 murine melanoma cells are shown below to mimic endothelial cell behavior and the angiogenic process in vitro and in vivo. Cord formation in vitro by tumor cells is stimulated by hypoxia and vascular endothelial growth factor (VEGF) and inhibited by antibodies against VEGF and the VEGF KDR receptor (VEGF receptor 2).

[2] = system: ND-GFP vessels growing from transplanted hair follicles; assay: ND-GFP vibrissa follicle transplantation into wounded nude-mouse skin, angiogenesis model; assay type: in vivo; conditions: nude mice with transplanted ND-GFP vibrissa follicles, compared with carrier-only control group
Source text: For transplantation purposes, vibrissa follicles from ND-GFP transgenic mice is surgically obtained as discussed in Example 8. All follicles are then kept in DMEM/F-12 medium containing B-27 supplement (GIBCO/BRL).
Recipient nude mice are anesthetized, and a sample of full-thickness skin is folded and two neighboring full-thickness wounds ˜15 mm apart are made with a 2-mm biopsy punch. ND-GFP vibrissa follicles are then transplanted. The incision is closed with nylon sutures (6-0).
The mice are divided into an experimental group and a control group. The experimental group received a treatment series comprising vascular endothelial growth factor, a known angiogenesis promoting compound in a pharmaceutically acceptable carrier. The control group of mice receives only the carrier.
Following treatment, samples of subcutis of the transplanted mice are subsequently excised and directly observed by fluorescence microscopy and air-dried or prepared for frozen sections for immunohistochemical staining. […]
The mice are divided into an experimental group and a control group. The experimental group received a treatment series comprising vasoinhibin, a known angiogenesis inhibiting compound in a pharmaceutically acceptable carrier. The control group of mice receives only the carrier.

## vascular endothelial growth factor
[1]
  cord formation in vitro by tumor cells: stimulated
[2]
  angiogenic activity based on the amount of GFP activity: higher degree of angiogenic activity
